From paper PMC2927429, “Novel Naphthalene-Based Inhibitors of Trypanosoma brucei RNA Editing Ligase 1” (PLoS Neglected Tropical Diseases, 2010)
Read-outs that look alike come from different tables or passages of the source.

Molecular target: T1, RNA editing ligase 1 (TbREL1) (Trypanosoma brucei, UniProt P86926)
T1 construct: gene REL1; recombinant full-length TbREL1, C-terminal TAP tag, Sf9 cells
T1 sequence (P86926 1-469): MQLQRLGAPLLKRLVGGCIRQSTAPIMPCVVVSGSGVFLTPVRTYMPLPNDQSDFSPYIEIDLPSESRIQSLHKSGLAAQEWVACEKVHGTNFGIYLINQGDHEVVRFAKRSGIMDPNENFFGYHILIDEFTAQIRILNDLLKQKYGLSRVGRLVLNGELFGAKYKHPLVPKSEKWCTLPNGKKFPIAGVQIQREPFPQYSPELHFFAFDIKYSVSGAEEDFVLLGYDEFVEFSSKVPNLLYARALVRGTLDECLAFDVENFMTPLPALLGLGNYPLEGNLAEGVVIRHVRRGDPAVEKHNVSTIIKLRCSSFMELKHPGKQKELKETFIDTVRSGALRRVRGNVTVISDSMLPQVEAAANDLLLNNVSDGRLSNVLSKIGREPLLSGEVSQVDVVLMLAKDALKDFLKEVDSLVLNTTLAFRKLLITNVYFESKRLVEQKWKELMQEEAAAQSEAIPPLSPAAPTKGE
Assay: inhibition of TbREL1 adenylylation with [α-32P]ATP, SDS/PAGE and phosphorimaging, […] Triton X-100
Type: biochemical

Row | Compound | IC50 (read-out: IC50) | IC50
1 | O=C(Nc1ccc2c(O)c(/N=N/c3ccc4c(O)cc(S(=O)(=O)O)cc4c3)c(S(=O)(=O)O)cc2c1)c1ccccc1 [V1, (E)-7-benzamido-4-hydroxy-3-((5-hydroxy-7-sulfonaphthalen-2-yl)diazenyl)naphthalene-2-sulfonic acid] | 2160 ± 1200 nM | 
2 | Nc1ccc2c(O)c(/N=N/c3ccc4c(O)cc(S(=O)(=O)O)cc4c3)c(S(=O)(=O)O)cc2c1 [V2, (E)-7-amino-4-hydroxy-3-((5-hydroxy-7-sulfonaphthalen-2-yl)diazenyl)naphthalene-2-sulfonic acid] | 1530 ± 1170 nM | 
3 | O=S(=O)(O)c1cc(O)c2ccc(Nc3ccc4c(O)cc(S(=O)(=O)O)cc4c3)cc2c1 [V3, Di-J acid] | 8360 ± 1710 nM | 
4 | O=S(=O)(O)c1cc(/N=N/c2c(O)ccc3ccccc23)c(O)c(/N=N/c2c(O)ccc3cc(S(=O)(=O)O)ccc23)c1 [V4, Mordant Black 25] |  | 1590 ± 1100 nM
